These are literature values, as cited in US6777561B1, “Compounds” (AstraZeneca Canada Inc., priority 1998, dated 2004).

Molecules are shown by their SMILES. Where only a bound is given, the exact number is not on record here.

The conditions of data set [1]: background statement on non-peptidic δ antagonists.
For another data set, the system named is δ receptor. To be noted: background statement on non-peptidic δ antagonists.

For the compound `Oc1ccc2c3c1O[C@H]1c4[nH]c5ccccc5c4C[C@@]4(O)[C@@H](C2)N(CC2CC2)CC[C@]314` [naltrindole], the analgesic activity result in data set [1] is reported as “no analgesic activity”. In addition, the “selectivity for the δ receptor vs. μ receptor binding” value in the data set on δ receptor is given as below 10 fold.
